Source: patent US12247029B2, “Heterocyclic compounds as class II phosphoinositide 3-kinase inhibitors” (Forschungsverbund Berlin e.V., priority 2018, dated 2025)

These compounds were tested against PI3KC2α Δ1-298 (Homo sapiens (Human), UniProt O00443) (assay: ADP-Glo kinase assay with purified PI3KC2α Δ1-298). Conditions: not given.
Format: biochemical
Protocol: Previous studies have shown that PI3KC2α can utilize phosphatidylinositol (PI) or phosphatidylinositol 4-phosphate [PI(4)P] to produce PI(3)P or PI(3,4)P2 respectively but with a preference for PI(3,4)P2 production. To verify that purified PI3KC2α Δ1-298 is active, a radioactive kinase assay was performed with PI as a substrate and different amounts of purified PI3KC2α Δ1-298. The lipid product [PI(3)P] was separated on TLC plates, and the PI(3)P signal was correlated with the amount of PI3KC2α used (FIG. 4A). […] After having confirmed the activity of purified PI3KC2α Δ1-298, an assay suitable for high content screens in multiwell format (ADP-Glo™ assay) was established. The ADP-Glo™ assay has been used for universal detection of ATP hydrolysis. This assay measures ATP hydrolysis occurring during a kinase reaction. For detection, generated ADP is re-converted into ATP with the […] and converted into light by the Ultra-Glo™ Luciferase reagent. The luminescent signal reports kinase activity (FIG. 4B).
The ADP-Glo™ assay was first used to determine the linear correlation range of signal with different amounts of kinase, and then to assess the Kms for ATP and for PI. […] Further optimization of this assay allowed us to carry out medium-to-high throughput screening using low amounts of purified enzyme (at fixed concentrations of: ATP=40 μM, PI=200 μM, PI3KC2α A1−298=10 ng/μl).
Primary screens were performed using the ADP-Glo™ assay in a 384-well format. 37, 224 small molecules were screened for their ability to inhibit kinase activity of PI3KC2α Δ1-298. The concentration of each compound used in the primary screens was 10 μM. Kinase incubations with ATP but without PI were used as negative control samples. This primary screen turned out to be robust with an average z′ factor of 0.57, and therefore judged as successful.
ADP-Glo kinase assay was performed as described by the manufacturer's protocol. Briefly, the kinase assay was performed with a […] of liver PI/ATP/purified PI3KC2α for 20 min in kinase reaction buffer described above. To deplete the remaining ATP from the reaction, 5 μl of […] was added to the kinase reaction mixture and incubated for 40 min. For detection, the generated ADP is re-converted into ATP and converted into light by the Ultra-Glo™ luciferase in kinase detection reagent. The luminescent signal positively correlates with kinase activity. All reactions are performed in Corning® 384 well-white plates.

Sequence of PI3KC2α Δ1-298 (O00443 299-1686): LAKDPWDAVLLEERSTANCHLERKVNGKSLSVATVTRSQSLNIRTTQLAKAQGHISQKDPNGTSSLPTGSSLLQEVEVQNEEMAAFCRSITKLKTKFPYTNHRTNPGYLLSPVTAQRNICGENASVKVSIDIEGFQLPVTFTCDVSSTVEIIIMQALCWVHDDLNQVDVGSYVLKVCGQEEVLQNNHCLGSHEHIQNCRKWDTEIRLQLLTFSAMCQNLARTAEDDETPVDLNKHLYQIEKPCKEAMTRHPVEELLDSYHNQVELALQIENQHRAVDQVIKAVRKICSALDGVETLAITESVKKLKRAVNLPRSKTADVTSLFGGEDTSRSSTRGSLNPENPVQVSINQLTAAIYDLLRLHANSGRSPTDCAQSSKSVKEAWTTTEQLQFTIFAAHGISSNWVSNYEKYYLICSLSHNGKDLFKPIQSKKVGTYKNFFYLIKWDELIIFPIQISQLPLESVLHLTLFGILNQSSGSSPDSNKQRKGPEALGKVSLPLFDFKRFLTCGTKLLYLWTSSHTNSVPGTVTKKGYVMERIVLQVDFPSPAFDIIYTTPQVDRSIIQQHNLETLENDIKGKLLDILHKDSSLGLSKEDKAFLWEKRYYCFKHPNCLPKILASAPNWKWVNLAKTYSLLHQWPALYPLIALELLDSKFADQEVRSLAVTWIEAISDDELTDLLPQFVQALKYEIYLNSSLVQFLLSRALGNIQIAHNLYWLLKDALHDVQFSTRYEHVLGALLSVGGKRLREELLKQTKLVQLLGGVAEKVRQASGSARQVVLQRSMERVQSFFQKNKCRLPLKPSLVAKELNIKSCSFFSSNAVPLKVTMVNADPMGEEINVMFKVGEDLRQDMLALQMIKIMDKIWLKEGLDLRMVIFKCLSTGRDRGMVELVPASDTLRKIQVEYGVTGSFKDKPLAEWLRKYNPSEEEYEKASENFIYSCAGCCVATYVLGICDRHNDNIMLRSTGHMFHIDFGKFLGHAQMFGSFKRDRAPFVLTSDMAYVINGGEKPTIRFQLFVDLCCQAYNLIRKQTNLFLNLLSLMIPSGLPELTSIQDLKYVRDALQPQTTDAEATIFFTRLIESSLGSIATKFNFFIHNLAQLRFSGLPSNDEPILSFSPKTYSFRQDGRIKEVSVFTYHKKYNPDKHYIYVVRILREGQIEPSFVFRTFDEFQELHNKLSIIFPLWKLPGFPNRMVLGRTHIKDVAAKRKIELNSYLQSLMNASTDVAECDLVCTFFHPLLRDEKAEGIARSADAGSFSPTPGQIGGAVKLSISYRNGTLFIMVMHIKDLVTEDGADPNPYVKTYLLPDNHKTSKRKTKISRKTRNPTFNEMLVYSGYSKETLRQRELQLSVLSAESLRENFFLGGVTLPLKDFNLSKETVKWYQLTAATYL

Compound	inhibition at 10 µM
O=C(CSc1nc2nccnc2c(=O)n1CCc1ccccc1)Nc1nc(-c2cccc([N+](=O)[O-])c2)cs1 [Example Compound 58, N-(4-(3-Nitrophenyl)thiazol-2-yl)-2-((4-oxo-3-phenethyl-3,4-dihydropteridin-2-yl)thio)acetamide]	100%
CC(C)NC(=O)CSc1nc2nccnc2c(=O)n1CCc1ccccc1 [Example Compound 61, N-Isopropyl-2-((4-oxo-3-phenethyl-3,4-dihydropteridin-2-yl)thio)acetamide]	30%
O=C(CSc1nc2nccnc2c(=O)n1CCc1ccccc1)c1ccccc1F [Example Compound 64, 2-((2-(2-Fluorophenyl)-2-oxoethyl)thio)-3-phenethylpteridin-4(3H)-one]	35%

Same assay, conditions: read-out: IC50 (PI3KC2α; ADP-Glo™ assay)

Compound	IC50
O=C(CSc1nc2nccnc2c(=O)n1Cc1ccco1)Nc1nccs1 [Example Compound 32, 2-((3-(Furan-2-ylmethyl)-4-oxo-3,4-dihydropteridin-2-yl)thio)-N-(thiazol-2-yl)acetamide]	1.8 µM
O=C(CSc1nc2nccnc2c(=O)n1Cc1ccco1)Nc1ccccc1F [Example Compound 33, N-(2-Fluorophenyl)-2-((3-(furan-2-ylmethyl)-4-oxo-3,4-dihydropteridin-2-yl)thio)acetamide]	7.9 µM
O=C(CSc1nc2nccnc2c(=O)n1-c1ccccc1)Nc1nccs1 [Example Compound 40, 2-((4-Oxo-3-phenyl-3,4-dihydropteridin-2-yl)thio)-N-(thiazol-2-yl)acetamide]	6.6 µM
NC(=O)c1ccc(-n2c(SCC(=O)Nc3nccs3)nc3nccnc3c2=O)cc1 [Example Compound 41, 4-(4-Oxo-2-((2-oxo-2-(thiazol-2-ylamino)ethyl)thio)pteridin-3(4H)-yl)benzamide]	0.051 µM
O=C(CSc1nc2nccnc2c(=O)n1CCC1CCCCC1)Nc1nccs1 [Example Compound 44, 2-((3-(2-Cyclohexylethyl)-4-oxo-3,4-dihydropteridin-2-yl)thio)-N-(thiazol-2-yl)acetamide]	0.59 µM
O=C(CSc1nc2nccnc2c(=O)n1CCc1ccccc1)Nc1nc(-c2ccc3ccccc3c2)cs1 [Example Compound 48, N-(4-(Naphthalen-2-yl)thiazol-2-yl)-2-((4-oxo-3-phenethyl-3,4-dihydropteridin-2-yl)thio)acetamide]	26 µM
CS(=O)(=O)N(c1cccc(-c2csc(NC(=O)CSc3nc4nccnc4c(=O)n3CCc3ccccc3)n2)c1)S(C)(=O)=O [Example Compound 55, N-(4-(3-(N-(Methylsulfonyl)methylsulfonamido)phenyl)thiazol-2-yl)-2-((4-oxo-3-phenethyl-3,4-dihydropteridin-2-yl)thio)acetamide]	0.2 µM
O=c1c2nccnc2nc(SCc2nc3ccccc3s2)n1CCc1ccccc1 [Example Compound 62, 2-((Benzo[d]thiazol-2-ylmethyl)thio)-3-phenethylpteridin-4(3H)-one]	4 µM
O=c1c2nccnc2nc(SCc2nc3ccccc3o2)n1CCc1ccccc1 [Example Compound 63, 2-((Benzo[d]oxazol-2-ylmethyl)thio)-3-phenethylpteridin-4(3H)-one]	5.7 µM
O=c1c2nccnc2nc(SCc2nc3ccccc3[nH]2)n1CCc1ccccc1 [Example Compound 65, 2-(((1H-Benzo[d]imidazol-2-yl)methyl)thio)-3-phenethylpteridin-4(3H)-one]	0.17 µM
O=c1[nH]c(CSc2nc3nccnc3c(=O)n2CCc2ccccc2)nc2ccccc12 [Example Compound 67, 2-(((4-Oxo-3,4-dihydroquinazolin-2-yl)methyl)thio)-3-phenethylpteridin-4(3H)-one]	1.9 µM
Cn1c(=O)c2nc(CSc3nc4nccnc4c(=O)n3CCc3ccccc3)[nH]c2n(C)c1=O [Example Compound 68, 1,3-Dimethyl-8-(((4-oxo-3-phenethyl-3,4-dihydropteridin-2-yl)thio)methyl)-3,9-dihydro-1H-purine-2,6-dione]	1.4 µM
O=c1c2nccnc2nc(SCc2nc3cc(Br)ccc3[nH]2)n1CCc1ccccc1 [Example Compound 72, 2-(((5-Bromo-1H-benzo[d]imidazol-2-yl)methyl)thio)-3-phenethylpteridin-4(3H)-one]	51 µM

Other lines, results leading:

IC50	Compound
2.4 µM	COc1cccc(-c2csc(NC(=O)CSc3nc4nccnc4c(=O)n3CCc3ccccc3)n2)c1 [Example Compound 31, N-(4-(3-Methoxyphenyl)thiazol-2-yl)-2-((4-oxo-3-phenethyl-3,4-dihydropteridin-2-yl)thio)acetamide]
< 50 µM	O=C(CSc1nc2nccnc2c(=O)n1Cc1ccccc1)Nc1nccs1 [Example Compound 42, 2-((3-Benzyl-4-oxo-3,4-dihydropteridin-2-yl)thio)-N-(thiazol-2-yl)acetamide]
35 µM	O=C(CSc1nc2nccnc2c(=O)n1CCc1ccccc1)Nc1ncc(Cl)s1 [Example Compound 45, N-(5-Chlorothiazol-2-yl)-2-((4-oxo-3-phenethyl-3,4-dihydropteridin-2-yl)thio)acetamide]
23 µM	Cc1cnc2nc(SCC(=O)Nc3nccs3)n(CCc3ccccc3)c(=O)c2n1 [Example Compound 46, 2-((6-Methyl-4-oxo-3-phenethyl-3,4-dihydropteridin-2-yl)thio)-N-(thiazol-2-yl)acetamide]
7.1 µM	O=C(CSc1nc2nccnc2c(=O)n1CCc1ccccc1)Nc1nc(-c2ccc(Cl)cc2)cs1 [Example Compound 49, N-(4-(4-Chlorophenyl)thiazol-2-yl)-2-((4-oxo-3-phenethyl-3,4-dihydropteridin-2-yl)thio)acetamide]
2.9 µM	N#Cc1ccc(-c2csc(NC(=O)CSc3nc4nccnc4c(=O)n3CCc3ccccc3)n2)cc1 [Example Compound 50, N-(4-(4-Cyanophenyl)thiazol-2-yl)-2-((4-oxo-3-phenethyl-3,4-dihydropteridin-2-yl)thio)acetamide]
1.3 µM	CS(=O)(=O)c1ccc(-c2csc(NC(=O)CSc3nc4nccnc4c(=O)n3CCc3ccccc3)n2)cc1 [Example Compound 53, N-(4-(4-(Methylsulfonyl)phenyl)thiazol-2-yl)-2-((4-oxo-3-phenethyl-3,4-dihydropteridin-2-yl)thio)acetamide]
0.82 µM	O=C(CSc1nc2ncccc2c(=O)n1CCc1ccccc1)Nc1nccs1 [Example Compound 54, 2-((4-Oxo-3-phenethyl-3,4-dihydropyrido[2,3-d]pyrimidin-2-yl)thio)-N-(thiazol-2-yl)acetamide]
3.1 µM	COc1cccc2nc(NC(=O)CSc3nc4nccnc4c(=O)n3CCc3ccccc3)sc12 [Example Compound 56, N-(7-Methoxybenzo[d]thiazol-2-yl)-2-((4-oxo-3-phenethyl-3,4-dihydropteridin-2-yl)thio)acetamide]
3.4 µM	O=C(CSc1nc2nccnc2c(=O)n1CCc1ccccc1)Nc1nc2c(F)cc(F)cc2s1 [Example Compound 57, N-(4,6-Difluorobenzo[d]thiazol-2-yl)-2-((4-oxo-3-phenethyl-3,4-dihydropteridin-2-yl)thio)acetamide]
0.15 µM	Nc1cccc(-c2csc(NC(=O)CSc3nc4nccnc4c(=O)n3CCc3ccccc3)n2)c1 [Example Compound 59, N-(4-(3-Aminophenyl)thiazol-2-yl)-2-((4-oxo-3-phenethyl-3,4-dihydropteridin-2-yl)thio)acetamide]
5.9 µM	O=C(CSc1nc2nccnc2c(=O)n1CCc1ccccc1)NC1CCC1 [Example Compound 60, N-Cyclobutyl-2-((4-oxo-3-phenethyl-3,4-dihydropteridin-2-yl)thio)acetamide]
27 µM	O=c1c2nccnc2nc(SCc2nc3cc(Cl)ccc3[nH]2)n1CCc1ccccc1 [Example Compound 69, 2-(((5-Chloro-1H-benzo[d]imidazol-2-yl)methyl)thio)-3-phenethylpteridin-4(3H)-one]
42 µM	Cc1ccnc2[nH]c(CSc3nc4nccnc4c(=O)n3CCc3ccccc3)nc12 [Example Compound 70, 2-(((7-Methyl-3H-imidazo[4,5-b]pyridin-2-yl)methyl)thio)-3-phenethylpteridin-4(3H)-one]
1.5 µM	Cn1ncc2c(=O)[nH]c(CSc3nc4nccnc4c(=O)n3CCc3ccccc3)nc21 [Example Compound 71, 2-(((1-Methyl-4-oxo-4,5-dihydro-1H-pyrazolo[3,4-d]pyrimidin-6-yl)methyl)thio)-3-phenethylpteridin-4(3H)-one]
0.61 µM	O=c1c2nccnc2nc(SCc2nc3cccnc3[nH]2)n1CCc1ccccc1 [Example Compound 73, 2-(((3H-Imidazo[4,5-b]pyridin-2-yl)methyl)thio)-3-phenethylpteridin-4(3H)-one]
